Columns and labels:
hMR = target: T1, hMR (Homo sapiens, UniProt P08235); assay: APRn selectivity: transactivation in HEK293T cells transiently expressing hMR; assay type: cell-based; details: mean±SEM; for MR Antagonist efficacy (%): aldosterone 10^−9 M
T1 construct: expressed in transfected cells; host or cells: HEK 293T
T1 sequence (P08235 1-984): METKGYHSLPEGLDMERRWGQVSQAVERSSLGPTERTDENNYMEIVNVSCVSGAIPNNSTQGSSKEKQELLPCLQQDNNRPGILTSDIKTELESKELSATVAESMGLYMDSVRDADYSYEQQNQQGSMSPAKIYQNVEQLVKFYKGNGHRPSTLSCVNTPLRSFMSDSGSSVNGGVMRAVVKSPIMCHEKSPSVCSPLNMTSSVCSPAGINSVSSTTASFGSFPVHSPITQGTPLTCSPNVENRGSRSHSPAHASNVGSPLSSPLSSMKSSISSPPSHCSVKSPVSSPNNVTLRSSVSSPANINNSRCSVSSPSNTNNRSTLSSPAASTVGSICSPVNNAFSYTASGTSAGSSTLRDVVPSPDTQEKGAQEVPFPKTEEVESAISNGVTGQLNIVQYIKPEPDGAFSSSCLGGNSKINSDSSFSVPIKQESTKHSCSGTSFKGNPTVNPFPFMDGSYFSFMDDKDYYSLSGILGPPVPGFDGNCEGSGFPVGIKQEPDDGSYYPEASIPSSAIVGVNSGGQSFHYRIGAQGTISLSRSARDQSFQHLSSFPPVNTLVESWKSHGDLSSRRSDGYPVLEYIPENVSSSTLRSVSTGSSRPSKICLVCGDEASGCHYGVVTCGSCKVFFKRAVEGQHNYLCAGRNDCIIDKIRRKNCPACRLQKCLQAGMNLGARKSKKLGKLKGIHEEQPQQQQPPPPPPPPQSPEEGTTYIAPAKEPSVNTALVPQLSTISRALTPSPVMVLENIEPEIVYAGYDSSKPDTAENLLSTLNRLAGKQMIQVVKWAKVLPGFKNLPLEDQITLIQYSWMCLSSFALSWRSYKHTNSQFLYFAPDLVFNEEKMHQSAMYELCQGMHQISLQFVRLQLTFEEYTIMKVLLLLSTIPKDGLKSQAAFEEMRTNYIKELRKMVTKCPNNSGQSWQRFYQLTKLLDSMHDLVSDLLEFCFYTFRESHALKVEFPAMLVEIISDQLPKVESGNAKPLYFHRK
Procedure: (§1) Measurement of the APRn Selectivity in HEK 293T.
(§2) The HEK-293T cells were cultured and transfected according to the method described above for the PR transactivation assays. The expression vectors pcDNA-hAR, kindly provided by G. A. Coetzee, pchGR (Hellal-Levy, C et al. FEBS Lett 1999, 464, 9), and pchMR (Fagart, J. et al. EMBO J. 1998, 17, 3317) were used for studying the ability of APRn to activate or inactivate the AR, GR and MR, respectively. For each transfection assays, 2 μg of the expression vector was used together with 7 μg of the GRE2-Luc reporter vector. Dihydrotestosterone (DHT), dexamethasone (Dex) and Aldosterone (Aldo) were selected as AR, GR and MR ligands, respectively. They were used at the concentration of 10^−9 M. The APRn agonist and antagonist efficacy for AR, GR and MR were measured as described above for PR. The results are the mean±SEM of three independent experiments.
(§3) Transfection assays were performed in HEK 293T cells by using expression vectors for the hAR, hGR and hMR and the GRE2-Luc reporter used for the PR transactivation assays.

hGR = target: T2, hGR (Homo sapiens, UniProt P04150); assay: APRn selectivity: transactivation in HEK293T cells transiently expressing hGR; assay type: cell-based; details: HEK293T transiently expressing hGR, mean±SEM; for GR Antagonist efficacy (%): dexamethasone 10^−9 M; for Emax: HEK-293T, read-out: GR Agonist efficacy (%)
T2 construct: expressed in transfected cells; host or cells: HEK 293T
T2 sequence (P04150 1-777): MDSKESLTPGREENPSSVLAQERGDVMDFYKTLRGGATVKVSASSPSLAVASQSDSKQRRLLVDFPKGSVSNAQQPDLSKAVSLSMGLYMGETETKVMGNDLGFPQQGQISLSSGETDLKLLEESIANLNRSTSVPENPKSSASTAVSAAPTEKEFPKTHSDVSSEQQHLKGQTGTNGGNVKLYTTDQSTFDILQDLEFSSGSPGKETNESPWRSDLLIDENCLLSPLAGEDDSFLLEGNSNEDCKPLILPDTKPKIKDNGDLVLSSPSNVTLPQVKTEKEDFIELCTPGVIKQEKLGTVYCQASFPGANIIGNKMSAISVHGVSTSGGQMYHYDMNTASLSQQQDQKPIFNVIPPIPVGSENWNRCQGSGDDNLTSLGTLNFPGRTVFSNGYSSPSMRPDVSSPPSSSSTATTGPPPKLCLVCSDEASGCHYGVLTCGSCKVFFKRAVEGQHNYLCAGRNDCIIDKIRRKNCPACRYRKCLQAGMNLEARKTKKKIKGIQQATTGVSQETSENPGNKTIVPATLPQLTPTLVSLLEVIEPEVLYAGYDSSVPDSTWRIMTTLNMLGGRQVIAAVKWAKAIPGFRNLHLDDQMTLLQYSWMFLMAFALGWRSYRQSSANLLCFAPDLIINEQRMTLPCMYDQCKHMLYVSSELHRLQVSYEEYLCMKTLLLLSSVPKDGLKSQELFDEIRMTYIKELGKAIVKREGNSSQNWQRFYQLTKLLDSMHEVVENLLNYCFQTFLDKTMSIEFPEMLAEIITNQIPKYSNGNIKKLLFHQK
Procedure: as §1, §2, §3

hAR = target: T3, hAR (Homo sapiens, UniProt P10275); assay: APRn selectivity: transactivation in HEK293T cells transiently expressing hAR; assay type: cell-based
T3 construct: expressed in transfected cells; host or cells: HEK 293T
T3 sequence (P10275 1-920): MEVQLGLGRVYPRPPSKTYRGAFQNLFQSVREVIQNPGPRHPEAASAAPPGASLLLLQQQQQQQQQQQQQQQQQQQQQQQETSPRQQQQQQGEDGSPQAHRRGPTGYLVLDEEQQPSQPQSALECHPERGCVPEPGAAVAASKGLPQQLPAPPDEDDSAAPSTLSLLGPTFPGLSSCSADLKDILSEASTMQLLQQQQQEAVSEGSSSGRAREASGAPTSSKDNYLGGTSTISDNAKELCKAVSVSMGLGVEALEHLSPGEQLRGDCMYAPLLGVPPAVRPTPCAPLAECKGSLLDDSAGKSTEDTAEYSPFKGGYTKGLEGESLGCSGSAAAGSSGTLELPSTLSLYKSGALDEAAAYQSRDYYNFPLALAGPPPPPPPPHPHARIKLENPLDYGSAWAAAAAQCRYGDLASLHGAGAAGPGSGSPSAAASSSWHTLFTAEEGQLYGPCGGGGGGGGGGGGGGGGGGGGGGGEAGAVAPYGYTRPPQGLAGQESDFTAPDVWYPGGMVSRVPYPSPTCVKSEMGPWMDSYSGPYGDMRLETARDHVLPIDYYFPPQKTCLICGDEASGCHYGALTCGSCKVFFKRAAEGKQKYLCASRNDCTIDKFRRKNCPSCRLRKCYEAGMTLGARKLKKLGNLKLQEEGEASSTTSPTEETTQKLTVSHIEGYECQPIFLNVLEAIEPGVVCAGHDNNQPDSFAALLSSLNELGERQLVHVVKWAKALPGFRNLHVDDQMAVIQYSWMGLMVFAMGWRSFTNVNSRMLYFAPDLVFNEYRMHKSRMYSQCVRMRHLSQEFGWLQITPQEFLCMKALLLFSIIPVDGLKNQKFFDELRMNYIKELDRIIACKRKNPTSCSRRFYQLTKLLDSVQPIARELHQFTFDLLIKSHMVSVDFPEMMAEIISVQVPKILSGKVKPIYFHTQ
Procedure: as §1, §2, §3

| Compound | melting point [°C] | MR Antagonist efficacy (%) (hMR) | MR Agonist efficacy (%) (hMR) | GR Antagonist efficacy (%) (hGR) | Emax (hGR) [%] | agonist efficacy towards hAR (in words) (hAR; HEK293T, FIG. 11) | selectivity for hPR vs hAR, hGR and hMR (in words) (hAR; conclusion from hAR, hGR and hMR transactivation assays) |
| --- | --- | --- | --- | --- | --- | --- | --- |
| CC#C[C@]1(O)CCC2C3CC=C4C[C@@H](F)CC[C@]4(C)C3CC[C@@]21C (stereo partly drawn) [APR-44, 31-Fluoro-17α-(1-propynyl)androst-5-en-17β-ol] | 136 to 137 | 1.6 ± 5.5 | 0.47 ± 0.10 | 2.0 ± 2.8 | 0.2 ± 0.1 | – | – |
| C[C@]12CC[C@H](F)C[C@@H]1CC[C@@H]1[C@@H]2CC[C@]2(C)[C@@H](O)CC[C@@H]12 [APR-40, 3β-Fluoro-5α-androstan-17β-ol] | 150 to 151 | 0.4 ± 2.6 | 0.57 ± 0.05 | 5.5 ± 3.9 | 0.3 ± 0.06 | – | – |
| CC(=O)[C@H]1CC[C@H]2[C@@H]3CC[C@H]4C[C@@H](F)CC[C@]4(C)[C@H]3CC[C@]12C [APR-17, 3β-Fluoro-5α-pregnan-20-one] | 154 to 155 | – | – | – | – | low agonist efficacy | selective hPR antagonists |

— patent publication US20130203718A1 (priority 2010, published 2013)
